Conditions: Liquid, Vibrating tube method

CCO [ethanol]
mass density [kg/m3]
Conditions	100 kPa	5000 kPa	10000 kPa	15000 kPa	20000 kPa	25000 kPa	30000 kPa	35000 kPa	40000 kPa	45000 kPa
283.15 K	798	802	805.9	809.5	813	816.4	819.7	822.8	825.9	828.8
293.15 K	789.5	793.7	797.8	801.6	805.3	808.9	812.3	815.6	818.7	821.8
303.15 K	780.9	785.3	789.6	793.7	797.5	801.3	804.8	808.2	811.5	814.7
313.15 K	772.1	776.8	781.3	785.6	789.6	793.5	797.2	800.8	804.2	807.6
323.15 K	763.3	768.3	773	777.6	781.8	785.9	789.7	793.5	797.1	800.5
333.15 K	754	759.3	764.3	769.1	773.6	777.8	781.9	785.8	789.5	793.1
343.15 K	744.5	750.1	755.5	760.5	765.3	769.8	774	778.1	782	785.7
353.15 K	–	740.6	746.4	751.7	756.7	761.5	766	770.2	774.3	778.2

From the NIST ThermoML archive (doi:10.1016/j.fluid.2005.05.023)
